The test is described as follows: Body weight of low protein model rat fed amino acid added diet. In kind it is in vivo. Particulars: vs 1% C group. The method, then: Using 10-week-old CD(SD) male rats, they were raised on a 1 wt % casein feed obtained by reducing the protein in standard purified diet AIN-93G (manufactured by Oriental yeast Co., Ltd.) (Table 14). The animal fed on the 1 wt % casein diet for 28 days (4 weeks) was used as a low protein model, and an influence of amino acid administration was evaluated. 10-week-old CD(SD) male rats were divided into the groups shown in Table 17, casein 20 wt % (20% C group) or 1 wt % feed was fed for 28 days according to the schedule shown in FIG. 1, and the body weight of rats thereafter fed with a 1 wt % casein diet (1% C group),and further added with each amino acid shown in Table 16 (4AA addition group (4AA group); a group of 4AA less tryptophan (−Trp group); a group of 4AA less methionine (−Met group); and a group of 4AA less threonine (−Thr group)) was measured. 10-week-old CD(SD) male rats were divided into the groups shown in Table 18, casein 20 wt % (20% C group) or 1 wt % feed was fed for 28 days according to the schedule shown in FIG. 1, and the body weight of rats thereafter fed with a 1 wt % casein diet (1% C group), and further added with the amino acid shown in Table 16 (4AA addition group (4AA group); an isoleucine and threonine combined use group (Ile, Thr group); an isoleucine addition group (Ile group); and the a threonine addition group (Thr group)) was measured. 10-week-old CD(SD) male rats were divided into the groups shown in Table 19, casein 20 wt % (20% C group) or 1 wt % feed was fed for 28 days according to the schedule shown in FIG. 1, and the body weight and weight of viscera-isolated carcass of rats thereafter fed for 14 days with a 1 wt % casein diet (1% C group), and further added with 1.15 g of the amino acid shown in Table 20 per 1 kg feed (4AA addition group (4AA group); a group of essential and non-essential amino acids addition group less 4AA (ALL-4AA group); essential amino acid addition group less 4AA (EAA-4AA group), non-essential amino acid addition group (NEAA group); and glycine addition group (Gly group)) was measured. […]

Setting [1] is: Experimental Example 4, 14 days after feeding amino acid added 1 wt % casein diet, FIG. 5.

`NCC(=O)O` [Gly, glycine]: the “body weight (ratio to day 0)” value (Experimental Example 5, 14 days after feeding diet with 1.15 g amino acid per 1 kg feed, FIG. 6) is “not recovered”. With `CC[C@H](C)[C@H](N)C(=O)O` [Ile, isoleucine], the “body weight (ratio to day 0)” value under setting [1] is given as “increase of the body weight was weakened”.

For the compound `C[C@@H](O)[C@H](N)C(=O)O` [Thr, threonine], the “body weight (ratio to day 0)” value under setting [1] is listed as “significantly recovered”.
